According to patent US20140377289A1, “Metallodrugs Having Improved Pharmacological Properties, and Methods of Manufacture and Use Thereof” (MetalloPharm, LLC, priority 2011, published 2014):
Where a SMILES comes first, the peptide text is derived from it. Where no end group is shown, it is not given here. [ ]: non-standard residue; d: D form. The star is where a group is joined. X1 = COCCOCCOCCOCCOCCOCCOCCOCCOCCOCCOCCOCCOCCOCCOCCOCCOCCOCCOCCOCCOCCOCCOCCOCCNC(=O)CCN1C(=O)CC(*)C1=O

Experiments:
full length sACE-1 = target: T1, full length sACE-1 (Homo sapiens, UniProt P12821); assay: Cleavage of full length sACE-1 monitored by SDS-PAGE; format: biochemical; details: Ascorbate, pH 7.4, 37° C.
T1 construct: sACE-1: Leu30-Leu1261, with C-terminal His tag; His tag (C); purchased R&D Systems; host or cells: NS0-derived murine myeloma cell line
T1 sequence (P12821 30-1261): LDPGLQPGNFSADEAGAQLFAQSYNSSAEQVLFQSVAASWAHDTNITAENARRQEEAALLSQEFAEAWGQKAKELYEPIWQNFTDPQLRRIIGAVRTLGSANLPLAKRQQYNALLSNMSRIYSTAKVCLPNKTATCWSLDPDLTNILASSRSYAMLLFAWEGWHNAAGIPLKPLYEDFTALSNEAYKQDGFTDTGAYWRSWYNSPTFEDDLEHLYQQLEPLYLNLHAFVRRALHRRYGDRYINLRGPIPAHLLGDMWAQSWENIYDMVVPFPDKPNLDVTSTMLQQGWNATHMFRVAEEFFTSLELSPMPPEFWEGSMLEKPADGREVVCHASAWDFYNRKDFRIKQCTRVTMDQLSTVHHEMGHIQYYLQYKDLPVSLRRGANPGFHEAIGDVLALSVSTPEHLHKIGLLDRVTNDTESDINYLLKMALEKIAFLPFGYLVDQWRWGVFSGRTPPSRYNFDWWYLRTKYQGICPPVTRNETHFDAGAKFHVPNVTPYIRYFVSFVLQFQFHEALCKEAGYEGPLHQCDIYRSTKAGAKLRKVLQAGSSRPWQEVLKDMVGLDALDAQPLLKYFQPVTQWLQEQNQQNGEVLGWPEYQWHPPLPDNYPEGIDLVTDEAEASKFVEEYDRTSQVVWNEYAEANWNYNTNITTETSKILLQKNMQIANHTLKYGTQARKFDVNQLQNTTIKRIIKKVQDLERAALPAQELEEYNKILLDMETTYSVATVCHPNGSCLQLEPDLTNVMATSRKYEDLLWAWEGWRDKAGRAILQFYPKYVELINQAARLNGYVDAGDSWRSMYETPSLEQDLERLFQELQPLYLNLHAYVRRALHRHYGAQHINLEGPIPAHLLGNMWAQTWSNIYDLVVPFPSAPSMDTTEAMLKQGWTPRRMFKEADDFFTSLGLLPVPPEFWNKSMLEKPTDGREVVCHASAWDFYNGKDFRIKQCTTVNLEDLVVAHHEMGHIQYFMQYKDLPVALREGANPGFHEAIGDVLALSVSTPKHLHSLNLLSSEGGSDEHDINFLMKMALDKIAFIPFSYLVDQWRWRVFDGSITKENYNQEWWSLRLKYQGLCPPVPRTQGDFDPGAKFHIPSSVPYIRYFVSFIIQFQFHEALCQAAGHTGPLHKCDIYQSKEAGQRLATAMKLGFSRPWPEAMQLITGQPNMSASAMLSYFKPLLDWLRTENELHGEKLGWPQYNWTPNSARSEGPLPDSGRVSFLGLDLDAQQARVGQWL

[1] = target: T2, Recombinant human somatic ACE (sACE-1) (Homo sapiens, UniProt P12821); assay: Time-dependent inactivation of sACE-1; format: biochemical; details: Ascorbate; pH 7.4, 37° C.
T2 construct: sACE-1: Leu30-Leu1261, with C-terminal His tag; His tag (C); purchased R&D Systems; host or cells: NS0-derived murine myeloma cell line
T2 sequence (P12821 30-1261): as above
Method: Time-Dependent Inactivation of sACE-1. sACE-1 and each M-chelate-lisinopril complex (prepared in the absence of Zn^2+) were preincubated for 20 min at 37° C. in a buffer containing 50 mM HEPES, 300 mM NaCl, 10 μM ZnCl2, 0.05% Brij35, pH 7.4, and after 20 min, coreactants ascorbate and/or H2O2 (or no coreactants) were added to initiate each reaction. Reaction concentrations were 1 nM sACE-1, a concentration of M-chelate-lisinopril that gave approximately 80% activity (calculated by use of equation (1), where A=80%; concentrations listed in the table in paragraph [00132]), and 1 mM ascorbate and/or H2O2 (or no coreactants). Each time-dependent ACE-inactivation reaction proceeded at 37° C. for a period of 2 h, and at each specific intervening time point, a 68.6 μL, aliquot of the reaction mixture containing sACE-1 was mixed with 1.4 μL of 0.5 mM fluorogenic substrate in a fluorescence cuvette. Substrate cleavage by sACE-1 was immediately monitored by real-time fluorimetry at 37° C., with excitation at 320 nm and emission at 405 nm. Initial rates were determined for each time point for the time-dependent inactivation of sACE-1, and these initial rates were expressed as a percentage (% maximal activity) of the average of several initial rates for uninhibited substrate cleavage by sACE-1, determined in the absence of both M-chelate-lisinopril complexes and coreactants. Plots of % maximal activity vs. time were fit to a first-order exponential decay model, and initial rates of inactivation of sACE-1 by M-chelate-lisinopril complexes were determined. Second-order rate constants for inactivation of sACE-1 were obtained using equation (2), where k2 is the second-order rate constant (M^−1 min^−1), R is the initial rate of enzyme inactivation (M/min) after subtraction of the corresponding background rate in the absence of M-chelate-lisinopril complex, but with the same coreactants, [I] is the concentration of M-chelate-lisinopril complex used (M), and [E] is the concentration of sACE-1 used (1×10^−9 M). Control experiments with M-chelate complexes lacking attached lisinopril were performed in the same manner and conditions used for the respective M-chelate-lisinopril complexes.

pUC19 plasmid DNA = assay: DNA nicking and linearization nuclease assay; format: biochemical; details: 10 μM base pairs pUC19; ascorbate/peroxide; — = Below detection limit
[2] = tested on: stem loop IV HCV IRES RNA; format: binding, hepatitis C virus (HCV)
Method: (§1) RNA was purchased from Dharmacon, part of Thermo Fisher Scientific (Lafayette, Colo.). Peptides were purchased from Genemed Synthesis Inc (South San Francisco, Calif.) with C-terminal amidation. The stem-loop (SL) structure (from Lytle et al., RNA 13: 539-48, 2002) is depicted in FIG. 6. The sequence for the IRES SL IIb RNA used was 5′-Fluorescein-[…]-3′, and for the IRES SL IV RNA was 5′-Fluorescein-[…]-3′. All RNA was annealed by heating to 95° C. and then cooled slowly to room temperature before use.
(§2) RNA binding experiments were performed in the presence of 84 nM GGHYrFK-amide in 20 mM HEPES (pH 7.4), 100 mM NaCl. For GGHYrFK-amide, serial additions of unlabeled IRES RNA were added and tyrosine emission was monitored (λex=280 nm, λem=313 nm). Binding data for GGHYr[…]-amide and GGHYr[…]-amide were obtained by adding serial additions of peptide to 5′-fluorescein labeled IRES SLIIb and monitoring at 518 nm (Ex=485 nm). Data was then fit to a one-site binding model.

[3] = tested on: stem-loop IIb of HCV IRES RNA; format: binding, hepatitis C virus (HCV); details: stem-loop IIb
Method: as §1, §2

[4] = tested on: stem loop IIb HCV IRES RNA; format: biochemical, hepatitis C virus (HCV); details: cleavage of stem-loop IIb; 100 nM catalyst, 1 mM ascorbate, 1 mM H2O2
Method: (§3) HCV IRES RNA cleavage was monitored in vitro by fluorescence using 5′ fluorescein end-labeled RNA with excitation and emission wavelengths of 485 nm and 518 nm, respectively. Reactions were carried out in reaction volumes of 100 μl in the presence of 1 mM ascorbate and 1 mM H2O2 in 20 mM HEPES buffer (pH=7.4), 100 mM NaCl with 100 nM of the catalyst and analyzed according to the change in fluorescence observed as the reaction occurred. Both a time-dependence and a concentration-dependence of RNA substrate were observed. The initial velocities were fit to a line using Origin 7.0 software and kobs obtained. These values were then used to obtain the Michaelis-Menten parameters.
The reactivity of select catalytic metallodrugs was investigated by Michaelis-Menten profiles. Reaction chemistry was followed by monitoring the fluorescence change of 5′-fluorescein-labeled RNA as a function of time. Initial velocities were measured as a function of substrate (RNA) concentration to generate a standard Michaelis-Menten plot (FIG. 2).

[5] = tested on: stem loop IV HCV IRES RNA; format: biochemical, hepatitis C virus (HCV); details: cleavage of stem loop IV; 100 nM catalyst, 1 mM ascorbate, 1 mM H2O2
Method: as §3

HCV protease = HCV protease (Hepatitis C virus genotype 1a, UniProt P27958); details: cited from earlier work
Chain of HCV protease (P27958 1027-1208, other chains not shown): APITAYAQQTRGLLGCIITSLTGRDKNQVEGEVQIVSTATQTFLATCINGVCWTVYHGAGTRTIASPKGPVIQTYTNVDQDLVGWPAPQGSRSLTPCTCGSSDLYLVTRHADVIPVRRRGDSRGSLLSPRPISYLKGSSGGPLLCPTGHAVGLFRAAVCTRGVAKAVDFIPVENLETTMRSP

Molecule: COCCOCCOCCOCCOCCOCCOCCOCCOCCOCCOCCOCCOCCOCCOCCOCCOCCOCCOCCOCCOCCOCCOCCOCCNC(=O)CCN1C(=O)CC(SC[C@H](NC(=O)CNC(=O)CNC(=O)[C@H](CCCCN)NC(=O)[C@H](Cc2ccccc2)NC(=O)[C@@H](CCCNC(=N)N)NC(=O)[C@H](Cc2ccc(O)cc2)NC(=O)CNC(=O)[C@H](Cc2c[nH]cn2)NC(=O)CNC(=O)CN)C(N)=O)C1=O (stereo partly shown) [Cu-GGHGYrFKGGC-PEG24] (H-GGHGY[dR]FKGGC(X1)-NH2)
- CC50: > 50 µM

Molecule: COCCOCCOCCOCCOCCOCCOCCOCCOCCOCCOCCOCCOCCOCCOCCOCCOCCOCCOCCOCCOCCOCCOCCOCCOCCOCCOCCOCCOCCOCCOCCOCCOCCOCCOCCOCCOCCOCCOCCOCCOCCOCCOCCOCCOCCOCCOCCOCCNC(=O)CCN1C(=O)CC(SC[C@H](NC(=O)CNC(=O)CNC(=O)[C@H](CCCCN)NC(=O)[C@H](Cc2ccccc2)NC(=O)[C@@H](CCCNC(=N)N)NC(=O)[C@H](Cc2ccc(O)cc2)NC(=O)CNC(=O)[C@H](Cc2c[nH]cn2)NC(=O)CNC(=O)CN)C(N)=O)C1=O (stereo partly shown) [Cu-GGHGYrFKGGC-PEG48]
- CC50: > 50 µM

Molecule: O=C([O-])CN(CCN(CC(=O)[O-])CC(=O)[O-])CC(=O)[O-].[Fe+3] [Fe-EDTA]
- Second order rate constant for cleavage of full length sACE-1 (in brackets), M-chelate without lisinopril (full length sACE-1): {<100,000} M^−1min^−1
- Second order rate constant for inactivation of sACE-1, M-chelate without lisinopril [1]: 10,000 ± 50,000 M^−1min^−1
- klin for DNA linearization, without attached Rev (M-chelate) (pUC19 plasmid DNA): 0.0005 ± 0.0001 min⁻¹
- knick for DNA nicking, without attached Rev (M-chelate) (pUC19 plasmid DNA): 0.044 ± 0.009 min⁻¹

Molecule: Cu-GGHKYKETDLLILFKDDYFAKKNEERK-amide
- KA [2]: 143000 M⁻¹
- Kd [2]: 7 µM
- KA [3]: 556000 M⁻¹
- Kd [3]: 1.8 µM
- Vmax [4]: 13.96 RFU/min
- Vmax [5]: 2.0 RFU/min

Molecule: Cu-GGHYRFK-amide (GGHYRFK-NH2; also: Cu complex)
- KA [2]: 145000 M⁻¹
- Kd [2]: 6.9 µM
- KA [3]: 145000 M⁻¹
- Kd [3]: 6.9 µM
- Vmax [4]: 3.96 RFU/min
- Vmax [5]: 0.95 RFU/min

Molecule: DDIVPC [Asp-Asp-Ile-Val-Pro-Cys]
- Ki (HCV protease): 79 µM
